These results are taken from US12473304B2, “Heterocyclic PAD4 inhibitors” (BRISTOL-MYERS SQUIBB COMPANY, priority 2020, dated 2025).

For one assay, the target named is human PAD4 (hPAD4) (Homo sapiens (Human), UniProt Q9UM07). Description: RFMS Human PAD4 Functional Assay 1. The class given is biochemical. The settings on record: RFMS assay 1; 5 nM hPAD4, 250 μM BAEE substrate, 50 μM calcium, 37° C. The procedure, abridged: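 Citrullination product read by RapidFire triple-quad MRM against a modified-citrulline internal standard, after TCA stop and 30 min phenyl glyoxal step at 37 °C. Reaction: 250 μM BAEE, 5 nM human PAD4, 90 min at 37 °C, pH 7.5 HEPES buffer with 50 μM calcium and 5 μM TPEN, following 30 min compound–enzyme preincubation (max 50 μM).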
Sequence of human PAD4 (hPAD4) (Q9UM07 whole entry): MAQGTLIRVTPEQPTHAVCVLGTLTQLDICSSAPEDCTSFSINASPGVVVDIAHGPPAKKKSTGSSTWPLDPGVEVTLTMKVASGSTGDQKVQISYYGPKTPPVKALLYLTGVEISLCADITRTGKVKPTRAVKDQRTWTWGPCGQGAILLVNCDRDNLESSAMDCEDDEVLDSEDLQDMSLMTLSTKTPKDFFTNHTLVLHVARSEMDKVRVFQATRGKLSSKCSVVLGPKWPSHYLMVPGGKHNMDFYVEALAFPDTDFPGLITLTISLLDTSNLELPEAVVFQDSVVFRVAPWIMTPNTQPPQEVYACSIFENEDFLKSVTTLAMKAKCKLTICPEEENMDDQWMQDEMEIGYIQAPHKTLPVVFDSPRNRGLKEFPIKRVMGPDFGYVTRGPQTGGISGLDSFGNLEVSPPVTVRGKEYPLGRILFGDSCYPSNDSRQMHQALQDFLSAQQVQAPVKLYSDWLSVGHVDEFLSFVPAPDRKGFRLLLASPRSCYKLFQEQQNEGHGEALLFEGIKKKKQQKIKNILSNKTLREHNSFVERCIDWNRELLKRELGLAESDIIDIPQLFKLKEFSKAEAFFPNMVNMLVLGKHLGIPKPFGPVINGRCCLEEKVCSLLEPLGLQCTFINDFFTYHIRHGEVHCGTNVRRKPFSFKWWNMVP
By IC50 is commonly meant the concentration at which inhibition is half-maximal. `Cc1c(-c2cc3ccc(-c4ccc(O)c(F)c4)cc3n2CC2CC2)oc2cc(C(=O)N3CC4CCC3[C@@H]4N)ccc12` (stereo partly drawn) [Example 182, ((7R)-7-Amino-2-azabicyclo[2.2.1]heptan-2-yl)(2-(1-(cyclopropylmethyl)-6-(3-fluoro-4-hydroxyphenyl)-1H-indol-2-yl)-3-methylbenzofuran-6-yl)methanone]: the IC50 turned out to be 923 nM.

As for `COc1cc(C(=O)N2C[C@H](N)C[C@@H](F)C2)cn2nc(-c3cc4cccc(C5CCN(C(=O)[C@H](C)OC)CC5)c4n3CC3CC3)c(C)c12` [Example 404, (S)-1-(4-(2-(6-((3R,5R)-3-Amino-5-fluoropiperidine-1-carbonyl)-4-methoxy-3-methylpyrazolo[1,5-a]pyridin-2-yl)-1-(cyclopropylmethyl)-1H-indol-7-yl)piperidin-1-yl)-2-methoxypropan-1-one], the IC50 was determined as 30 nM.

In the case of `Cc1c(-c2cc3ccc(-c4ccc(O)c(F)c4)nc3n2CC2CC2)nn2cc(C(=O)N3CC4CCC3[C@@H]4N)cc(F)c12` (stereo partly drawn) [Example 48, ((7R)-7-Amino-2-azabicyclo[2.2.1]heptan-2-yl)(2-(1-(cyclopropylmethyl)-6-(3-fluoro-4-hydroxyphenyl)-1H-pyrrolo[2,3-b]pyridin-2-yl)-4-fluoro-3-methylpyrazolo[1,5-a]pyridin-6-yl)methanone], the IC50 was 326 nM.

As to `Cc1c(-c2cc3cccc(OC[C@@H]4CCC(=O)N4)c3n2CC2CC2)nn2cc(C(=O)N3C[C@H](N)C[C@@H](F)C3)ccc12` [Example 585, (S)-5-(((2-(6-((3R,5R)-3-Amino-5-fluoropiperidine-1-carbonyl)-3-methylpyrazolo[1,5-a]pyridin-2-yl)-1-(cyclopropylmethyl)-1H-indol-7-yl)oxy)methyl)pyrrolidin-2-one], the IC50 amounted to 70 nM.

For `COc1cc(-c2ccc3cc(-c4sc5cc(C(=O)N6CC7CCC6[C@@H]7N)cc(OC)c5c4C)n(CC4CC4)c3c2)ccn1` (stereo partly drawn) [Example 129, ((7R)-7-Amino-2-azabicyclo[2.2.1]heptan-2-yl)(2-(1-(cyclopropylmethyl)-6-(2-methoxypyridin-4-yl)-1H-indol-2-yl)-4-methoxy-3-methylbenzo[b]thiophen-6-yl)methanone], the IC50 stood at 376 nM.

As to `COc1cc(C(=O)N2CC3CCC2[C@@H]3N)cc2sc(-c3cc4ccccc4n3CC3CC3)c(C)c12` (stereo partly drawn) [Example 118, ((7R)-7-Amino-2-azabicyclo[2.2.1]heptan-2-yl)(2-(1-(cyclopropylmethyl)-1H-indol-2-yl)-4-methoxy-3-methylbenzo[b]thiophen-6-yl)methanone], the IC50 turned out to be 157 nM.

Take `Cc1c(-c2cc3cccc(C4CCN(C(=O)[C@@H]5CCC[C@H](O)C5)CC4)c3n2CC2CC2)nn2cc(C(=O)N3C[C@H](N)C[C@@H](F)C3)ccc12` [Example 449, ((3R,5R)-3-amino-5-fluoropiperidin-1-yl)(2-(1-(cyclopropylmethyl)-7-(1-((1R,3S)-3-hydroxycyclohexane-1-carbonyl)piperidin-4-yl)-1H-indol-2-yl)-3-methylpyrazolo[1,5-a]pyridin-6-yl)methanone]: the IC50 is 50 nM.

Turning to `Cc1c(-c2cc3ccc(-c4ccc(C(N)=O)cc4Cl)cc3n2CC2CC2)nn2cc(C(=O)N3CC4CCC3[C@@H]4N)cc(F)c12` (stereo partly drawn) [Example 294, 4-(2-{6-[(7R)-7-Amino-2-azabicyclo[2.2.1]heptane-2-carbonyl]-4-fluoro-3-methylpyrazolo[1,5-a]pyridin-2-yl}-1-(cyclopropylmethyl)-1H-indol-6-yl)-3-chlorobenzamide], the IC50 was found to be 200 nM.

In the case of `Cc1c(-c2cc3ccc(N4CCC(N5CCOC5=O)CC4)cc3n2CC2CC2)nn2cc(C(=O)N3CCC[C@@H](N)C3)ccc12` [Example 364, 3-[1-(2-{6-[(3R)-3-Aminopiperidine-1-carbonyl]-3-methylpyrazolo[1,5-a]pyridin-2-yl}-1-(cyclopropylmethyl)-1H-indol-6-yl)piperidin-4-yl]-1,3-oxazolidin-2-one], the IC50 is 1090 nM.

For `CC(=O)N1CCC(c2cccc3cc(-c4nn5cc(C(=O)N6C[C@H](N)C[C@@H](F)C6)cc(F)c5c4C)n(CC4CC4)c23)CC1` [Example 427, 1-(4-(2-(6-((3R,5R)-3-Amino-5-fluoropiperidine-1-carbonyl)-4-fluoro-3-methylpyrazolo[1,5-a]pyridin-2-yl)-1-(cyclopropylmethyl)-1H-indol-7-yl)piperidin-1-yl)ethan-1-one], the IC50 was 20 nM.

As for `Cc1c(-c2cc3ccc(Cl)nc3n2CC2CC2)nn2cc(C(=O)N3C[C@H](N)C[C@@H](F)C3)cc(Cl)c12` [Example 289, (3R,5R)-1-{4-Chloro-2-[6-chloro-1-(cyclopropylmethyl)-1H-pyrrolo[2,3-b]pyridin-2-yl]-3-methylpyrazolo[1,5-a]pyridine-6-carbonyl}-5-fluoropiperidin-3-amine], the IC50 came out at 3580 nM.

Another assay deals with recombinant human PAD4 (Homo sapiens (Human), UniProt Q9UM07). Description: RFMS Human PAD4 Functional Assay 2. The class given is biochemical. The conditions noted are these: RFMS assay 2; 35 nM recombinant human PAD4, 500 μM TSTGGRQGSHH peptide, 2 mM CaCl2, room temperature 30 minutes; read-out: hPAD4 RFMS IC50. Here is the method: RFMS Human PAD4 Functional Assay 2: Compound Preparation: • Stock compounds were dissolved and stored in 100% DMSO. Compound solutions were prepared via serial dilution at 3-fold intervals in DMSO with top compound concentration at 20 μM in each assay. 0.25 μl of compound solution was transferred from the compound plate to the assay plate by using an acoustic dispenser. Final Assay Conditions: • Total reaction volume: 25 μl • Assay buffer: […] pH 7.4, 200 mM NaCl, 2 mM CaCl2, 5 mM DTT • 35 nM recombinant human PAD4 • 500 μM TSTGGRQGSHH peptide • […] DMSO • Stop solution: 10% formic acid
Sequence of recombinant human PAD4 (Q9UM07 whole entry): as above
Reaction mixtures were incubated at room temperature for 30 minutes. 10 μl each of the reaction mixtures was then mixed with 40 μl of 10% formic acid in a microtiter plate. The plate was frozen at −80° C. before shipping out on dry ice for RapidFire mass spectroscopy analysis.
Thawed samples were loaded onto the Rapid Fire 300 system (Agilent) wherein they were first sipped for 250 ms and then loaded onto an Agilent “C” (C18) cartridge using a mobile phase of water containing 0.09% formic acid/0.01% trifluoroacetic acid for 3000 ms desalting flowing at a rate of 1.5 ml/min. Once the samples were loaded and washed, a mobile phase of acetonitrile containing 0.09% formic acid/0.01% trifluoroacetic acid was used to elute the samples directly onto a Sciex API4000 triple quadrupole mass spectrometer for 3000 ms at a flow rate of 1.25 ml/min.
MRM transitions for substrate and product were monitored in positive ESI mode at m/z=562.3/969.7 and m/z=562.8/541.3 respectively. The dwell time for each transition was set at 100 ms, and the ESI voltage was used at 5500 with a source temperature of 650° C. Extracted ion peaks for each transition were integrated using the Rapid Fire Integrator software.
Turning to `COc1cc(C(=O)N2C[C@H](N)C[C@@H](F)C2)cc2oc(-c3cc4cccc(OCC5CN(C)C5)c4n3CC3CC3)c(CCO)c12` [Example 637, ((3R,5R)-3-amino-5-fluoropiperidin-1-yl)(2-(1-(cyclopropylmethyl)-7-((1-methylazetidin-3-yl)methoxy)-1H-indol-2-yl)-3-(2-hydroxyethyl)-4-methoxybenzofuran-6-yl)methanone], the IC50 is 621 nM.

On to `COc1cc(C(=O)N2C[C@H](N)C[C@@H](F)C2)cc2oc(-c3cc4cccc(OCCO)c4n3CC3CC3)c(CCO)c12` [Example 634, ((3R,5R)-3-amino-5-fluoropiperidin-1-yl)(2-(1-(cyclopropylmethyl)-7-(2-hydroxyethoxy)-1H-indol-2-yl)-3-(2-hydroxyethyl)-4-methoxybenzofuran-6-yl)methanone], for which the IC50 was 209 nM.

As for `COc1cc(C(=O)N2C[C@H](N)C[C@@H](F)C2)cc2oc(-c3cc4cccc(OCC5CNC(=O)C5)c4n3CC3CC3)c(CCO)c12` (stereo partly drawn) [Example 633, 4-(((2-(6-((3R,5R)-3-amino-5-fluoropiperidine-1-carbonyl)-3-(2-hydroxyethyl)-4-methoxybenzofuran-2-yl)-1-(cyclopropylmethyl)-1H-indol-7-yl)oxy)methyl)pyrrolidin-2-one], the IC50 turned out to be 179 nM.

With `COc1cc(C(=O)N2C[C@H](N)C[C@@H](F)C2)cc2oc(-c3cc4cccnc4n3CC3CC3)c(CCO)c12` [Example 629, ((3R,5R)-3-amino-5-fluoropiperidin-1-yl)(2-(1-(cyclopropylmethyl)-1H-pyrrolo[2,3-b]pyridin-2-yl)-3-(2-hydroxyethyl)-4-methoxybenzofuran-6-yl)methanone], the IC50 stood at 785 nM.

As to `COc1cc(C(=O)N2C[C@H](N)C[C@@H](F)C2)cc2sc(-c3cc4ccccc4n3CC3CC3)c(CCO)c12` [Example 623, ((3R,5R)-3-amino-5-fluoropiperidin-1-yl)(2-(1-(cyclopropylmethyl)-1H-indol-2-yl)-3-(2-hydroxyethyl)-4-methoxybenzo[b]thiophen-6-yl)methanone], the 50% inhibitory concentration (IC50) was 395 nM.

Take `COc1cc(C(=O)N2CCC[C@@H](N)C2)cc2sc(-c3cc4ccccc4n3CC3CC3)c(CCO)c12` [Example 622, (R)-(3-aminopiperidin-1-yl)(2-(1-(cyclopropylmethyl)-1H-indol-2-yl)-3-(2-hydroxyethyl)-4-methoxybenzo[b]thiophen-6-yl)methanone]: the IC50 was 1200 nM.

With `COc1cc(C(=O)N2CCC[C@@H](N)C2)cc2sc(-c3cc4ccccc4n3CC3CC3)c(CCN)c12` [Example 625, (R)-(3-(2-aminoethyl)-2-(1-(cyclopropylmethyl)-1H-indol-2-yl)-4-methoxybenzo[b]thiophen-6-yl)(3-aminopiperidin-1-yl)methanone], the IC50 turned out to be 2040 nM.

Turning to `COc1cc(C(=O)N2C[C@H](N)C[C@@H](F)C2)cc2oc(-c3cc4cccc(OCCn5cncn5)c4n3CC3CC3)c(CCO)c12` [Example 635, (2-(7-(2-(1H-1,2,4-triazol-1-yl)ethoxy)-1-(cyclopropylmethyl)-1H-indol-2-yl)-3-(2-hydroxyethyl)-4-methoxybenzofuran-6-yl)((3R,5R)-3-amino-5-fluoropiperidin-1-yl)methanone], the IC50 amounted to 216 nM.

`Cc1c(-c2cc3ccccc3n2CC2CC2)sc2cc(C(=O)N3CCC[C@@H](N)C3)cc(CO)c12` [Example 627, (R)-(3-Aminopiperidin-1-yl)(2-(1-(cyclopropylmethyl)-1H-indol-2-yl)-4-(hydroxymethyl)-3-methylbenzo[b]thiophen-6-yl)methanone]: the IC50 worked out at 879 nM.
